In patent publication US10487093B2, “Heterocyclic compounds, in particular 2-oxo-4,4,5,5,6,6,7,7-octahydrobenzoxazole derivatives, and their use as antibacterial compounds” (priority 2016, dated 2019):

Tested on: Gram-negative and Gram-positive bacterial strains
Assay type: cell-based
Settings: including those which are resistant to fluoroquinolone antibiotics and other antibiotics

SMILES	activity against all strains of A. baumannii and E. coli tested (in words)
COc1ccc2ncc(=O)n(CCN[C@H]3CCC4C(C3)OC(=O)N4c3ccc4c(n3)NC(=O)CO4)c2n1 (stereo in doubt) [Compound 45, (3aS,6S,7aS)-6-[(2-{6-methoxy-3-oxo-3H,4H-pyrido[2,3-b]pyrazin-4-yl}ethyl)amino]-3-{3-oxo-2H,3H,4H-pyrido[3,2-b][1,4]oxazin-6-yl}-octahydro-1,3-benzoxazol-2-one]	excellent activity
COc1ccc2ccc(=O)n(CCN[C@H]3CC[C@H]4[C@@H](C3)OC(=O)N4c3ccc4c(n3)NC(=O)CO4)c2n1 [Compound 4, 1-(2-{[(3aS,6S,7aR)-2-oxo-3-{3-oxo-2H,3H,4H-pyrido[3,2-b][1,4]oxazin-6-yl}-octahydro-1,3-benzoxazol-6-yl]amino}ethyl)-7-methoxy-1,2-dihydro-1,8-naphthyridin-2-one]	excellent activity
COc1ccc2ncc(=O)n(CCN[C@@H]3CC[C@@H]4[C@@H](C3)OC(=O)N4c3ccc4c(n3)NC(=O)CO4)c2c1 [Compound 21, 1-(2-{[(3aR,6R,7aR)-2-oxo-3-{3-oxo-2H,3H,4H-pyrido[3,2-b][1,4]oxazin-6-yl}-octahydro-1,3-benzoxazol-6-yl]amino}ethyl)-7-methoxy-1,2-dihydroquinoxalin-2-one]	excellent activity
O=C1COc2ccc(N3C(=O)O[C@@H]4C[C@@H](NCCn5c(=O)cnc6cc(F)c(F)cc65)CC[C@@H]43)nc2N1 [Compound 22, 1-(2-{[(3aS,6S,7aR)-2-oxo-3-{3-oxo-2H,3H,4H-pyrido[3,2-b][1,4]oxazin-6-yl}-octahydro-1,3-benzoxazol-6-yl]amino}ethyl)-6,7-difluoro-1,2-dihydroquinoxalin-2-one]	excellent activity
O=C1COc2ccc(N3C(=O)O[C@H]4C[C@@H](NCCn5c(=O)cnc6cc(F)c(F)cc65)CC[C@@H]43)nc2N1 [Compound 34, 1-(2-{[(3aS,6S,7aS)-2-oxo-3-{3-oxo-2H,3H,4H-pyrido[3,2-b][1,4]oxazin-6-yl}-octahydro-1,3-benzoxazol-6-yl]amino}ethyl)-6,7-difluoro-1,2-dihydroquinoxalin-2-one]	excellent activity
N#Cc1cnc2ccc(=O)n(CCN[C@H]3CC[C@H]4[C@H](C3)OC(=O)N4c3ccc4c(n3)NC(=O)CO4)c2c1 [Compound 55, 5-(2-{[(3aS,6S,7aS)-2-oxo-3-{3-oxo-2H,3H,4H-pyrido[3,2-b][1,4]oxazin-6-yl}-octahydro-1,3-benzoxazol-6-yl]amino}ethyl)-6-oxo-5,6-dihydro-1,5-naphthyridine-3-carbonitrile]	excellent activity
N#Cc1ccc2ccc(=O)n(CCN[C@H]3CC[C@H]4[C@H](C3)OC(=O)N4c3ccc4c(n3)NC(=O)CO4)c2c1 [Compound 56, 1-(2-{[(3aS,6S,7aS)-2-oxo-3-{3-oxo-2H,3H,4H-pyrido[3,2-b][1,4]oxazin-6-yl}-octahydro-1,3-benzoxazol-6-yl]amino}ethyl)-2-oxo-1,2-dihydroquinoline-7-carbonitrile]	excellent activity
N#Cc1ccc2ncc(=O)n(CCN[C@@H]3CC[C@@H]4[C@@H](C3)OC(=O)N4c3ccc4c(n3)NC(=O)CO4)c2c1 [Compound 68, 4-(2-{[(3aR,6R,7aR)-2-oxo-3-{3-oxo-2H,3H,4H-pyrido[3,2-b][1,4]oxazin-6-yl}-octahydro-1,3-benzoxazol-6-yl]amino}ethyl)-3-oxo-3,4-dihydroquinoxaline-6-carbonitrile]	excellent activity
COc1cnc2ccc(=O)n(CCN[C@@H]3CC[C@@H]4[C@@H](C3)OC(=O)N4c3ccc4c(n3)NC(=O)CO4)c2c1 [Compound 69, 1-(2-{[(3aR,6R,7aR)-2-oxo-3-{3-oxo-2H,3H,4H-pyrido[3,2-b][1,4]oxazin-6-yl}-octahydro-1,3-benzoxazol-6-yl]amino}ethyl)-7-methoxy-1,2-dihydro-1,5-naphthyridin-2-one]	excellent activity
N#Cc1cnc2ccc(=O)n(CCN[C@H]3CC[C@H]4[C@H](C3)OC(=O)N4c3ccc4c(n3)NC(=O)CS4)c2c1 [Compound 77, 5-(2-{[(3aS,6S,7aS)-2-oxo-3-{3-oxo-2H,3H,4H-pyrido[3,2-b][1,4]thiazin-6-yl}-octahydro-1,3-benzoxazol-6-yl]amino}ethyl)-6-oxo-5,6-dihydro-1,5-naphthyridine-3-carbonitrile]	excellent activity
COc1cccc(-c2cccc(CN[C@@H]3CC[C@@H]4[C@@H](C3)OC(=O)N4c3ccc4c(n3)NC(=O)CO4)c2)n1 [Compound 80, (3aR,6R,7aR)-6-({[3-(6-methoxypyridin-2-yl)phenyl]methyl}amino)-3-{3-oxo-2H,3H,4H-pyrido[3,2-b][1,4]oxazin-6-yl}-octahydro-1,3-benzoxazol-2-one]	excellent activity
COc1cnc2ccc(=O)n(CCN[C@H]3CC[C@H]4[C@H](C3)OC(=O)N4c3ccc4c(n3)NC(=O)CS4)c2c1 [Compound 81, 1-(2-{[(3aS,6S,7aS)-2-oxo-3-{3-oxo-2H,3H,4H-pyrido[3,2-b][1,4]thiazin-6-yl}-octahydro-1,3-benzoxazol-6-yl]amino}ethyl)-7-methoxy-1,2-dihydro-1,5-naphthyridin-2-one]	excellent activity
COc1ccc2ccc(=O)n(CCCN[C@H]3CC[C@H]4[C@H](C3)OC(=O)N4c3ccc4c(n3)NC(=O)CS4)c2n1 [Compound 85, 1-(3-{[(3aS,6S,7aS)-2-oxo-3-{3-oxo-2H,3H,4H-pyrido[3,2-b][1,4]thiazin-6-yl}-octahydro-1,3-benzoxazol-6-yl]amino}propyl)-7-methoxy-1,2-dihydro-1,8-naphthyridin-2-one]	excellent activity
O=C1COc2ccc(N3C(=O)O[C@@H]4C[C@H](NCCCn5c(=O)cnc6cc(F)c(F)cc65)CC[C@H]43)nc2N1 [Compound 88, 1-(3-{[(3aR,6R,7aR)-2-oxo-3-{3-oxo-2H,3H,4H-pyrido[3,2-b][1,4]oxazin-6-yl}-octahydro-1,3-benzoxazol-6-yl]amino}propyl)-6,7-difluoro-1,2-dihydroquinoxalin-2-one]	excellent activity
O=C1COc2ccc(N3C(=O)O[C@H]4C[C@@H](NCCCn5c(=O)cnc6cc(F)c(F)cc65)CC[C@@H]43)nc2N1 [Compound 90, 1-(3-{[(3aS,6S,7aS)-2-oxo-3-{3-oxo-2H,3H,4H-pyrido[3,2-b][1,4]oxazin-6-yl}-octahydro-1,3-benzoxazol-6-yl]amino}propyl)-6,7-difluoro-1,2-dihydroquinoxalin-2-one]	excellent activity
O=C1COc2ccc(N3C(=O)O[C@H]4C[C@@H](NCCn5c(=O)ccc6ccc(OC(F)F)cc65)CC[C@@H]43)nc2N1 [Compound 101, 1-(2-{[(3aS,6S,7aS)-2-oxo-3-{3-oxo-2H,3H,4H-pyrido[3,2-b][1,4]oxazin-6-yl}-octahydro-1,3-benzoxazol-6-yl]amino}ethyl)-7-(difluoromethoxy)-1,2-dihydro quinolin-2-one]	excellent activity
COc1ccc2ccc(=O)n(CCN[C@H]3CC[C@H]4[C@H](C3)OC(=O)N4c3ccc4c(n3)NC(=O)CO4)c2c1 [Compound 102, 1-(2-{[(3aS,6S,7aS)-2-oxo-3-{3-oxo-2H,3H,4H-pyrido[3,2-b][1,4]oxazin-6-yl}-octahydro-1,3-benzoxazol-6-yl]amino}ethyl)-7-methoxy-1,2-dihydroquinolin-2-one]	excellent activity
N#Cc1cccc(-c2cccc(CN[C@H]3CC[C@H]4[C@H](C3)OC(=O)N4c3ccc4c(n3)NC(=O)CO4)n2)c1 [Compound 105, 3-[6-({[(3aS,6S,7aS)-2-oxo-3-{3-oxo-2H,3H,4H-pyrido[3,2-b][1,4]oxazin-6-yl}-octahydro-1,3-benzoxazol-6-yl]amino}methyl)pyridin-2-yl]benzonitrile]	excellent activity
